Patent US12063930B2, “Sulfonamide-containing 4-(N-methyl) aminopiperidine myricetin derivatives, preparation method and application” (Guizhou University, priority 2019, dated 2024)
Read-outs that look alike come from different tables or passages of the source.

How the values were obtained:
[1] = system: rice bacterial wilt pathogen (Xoo); format: cell-based, Xanthomonas oryzae pv. oryzae
[2] = system: citrus canker pathogen (Xac); assay: Turbidimetric anti-plant bacterial activity test, citrus canker pathogen; format: cell-based, Xanthomonas axonopodis pv. citri
[3] = system: tobacco bacterial wilt pathogen (Rs); format: cell-based, Ralstonia solanacearum

Row | Compound | Inhibition Rate ([1]; 50 μg/mL) | Inhibition Rate ([1]; 100 μg/mL) | Inhibition Rate ([2]; 50 μg/mL) | Inhibition Rate ([2]; 100 μg/mL) | Inhibition Rate ([3]; 50 μg/mL) | Inhibition Rate ([3]; 100 μg/mL)
1 | COc1cc(OC)c2c(=O)c(OCCCN(C)C3CCN(S(=O)(=O)c4ccc(C)cc4)CC3)c(-c3cc(OC)c(OC)c(OC)c3)oc2c1 [Compound I1] | 75.88 ± 1.80% | 81.34 ± 0.57% | 93.55 ± 0.85% | 99.20 ± 4.48% | 47.86 ± 5.55% | 58.01 ± 6.08%
2 | COc1cc(OC)c2c(=O)c(OCCCN(C)C3CCN(S(=O)(=O)c4ccc5ccccc5c4)CC3)c(-c3cc(OC)c(OC)c(OC)c3)oc2c1 [Compound I2] | 88.53 ± 5.30% | 99.01 ± 4.53% | 92.76 ± 2.12% | 99.55 ± 5.61% | 34.17 ± 5.87% | 30.28 ± 8.79%
3 | COc1cc(OC)c2c(=O)c(OCCCN(C)C3CCN(S(=O)(=O)c4ccc(F)cc4)CC3)c(-c3cc(OC)c(OC)c(OC)c3)oc2c1 [Compound I3] | 9.99 ± 7.64% | 53.31 ± 3.55% | 88.81 ± 1.32% | 94.73 ± 1.63% | 56.37 ± 3.41% | 55.25 ± 2.35%
4 | COc1cc(OC)c2c(=O)c(OCCCN(C)C3CCN(S(=O)(=O)c4cccs4)CC3)c(-c3cc(OC)c(OC)c(OC)c3)oc2c1 [Compound I4] | 21.34 ± 3.45% | 48.16 ± 4.24% | 76.83 ± 2.59% | 81.47 ± 3.58% | 46.44 ± 8.48% | 58.19 ± 8.11%
5 | COc1ccc(S(=O)(=O)N2CCC(N(C)CCCOc3c(-c4cc(OC)c(OC)c(OC)c4)oc4cc(OC)cc(OC)c4c3=O)CC2)cc1 [Compound I5] | 56.37 ± 2.44% | 68.42 ± 4.76% | 84.37 ± 1.91% | 95.86 ± 1.19% | 18.66 ± 9.95% | 49.03 ± 5.33%
6 | COc1cc(OC)c2c(=O)c(OCCCN(C)C3CCN(S(=O)(=O)c4ccc([N+](=O)[O-])cc4)CC3)c(-c3cc(OC)c(OC)c(OC)c3)oc2c1 [Compound I6] | 52.08 ± 6.32% | 60.99 ± 5.49% | 96.13 ± 1.63% | 99.01 ± 0.64% | 26.01 ± 6.89% | 59.09 ± 4.18%
7 | COc1cc(OC)c2c(=O)c(OCCCN(C)C3CCN(S(=O)(=O)c4ccccc4)CC3)c(-c3cc(OC)c(OC)c(OC)c3)oc2c1 [Compound I7] | 48.01 ± 3.21% | 53.46 ± 2.80% | 89.57 ± 2.14% | 92.48 ± 0.65% | 50.24 ± 2.21% | 52.83 ± 6.66%
8 | COc1cc(OC)c2c(=O)c(OCCCN(C)C3CCN(S(=O)(=O)c4ccccn4)CC3)c(-c3cc(OC)c(OC)c(OC)c3)oc2c1 [Compound I8] | 52.14 ± 3.12% | 59.94 ± 3.35% | 85.13 ± 2.35% | 88.03 ± 1.19% | 47.65 ± 0.35% | 48.99 ± 2.35%
9 | COc1cc(OC)c2c(=O)c(OCCCN(C)C3CCN(S(=O)(=O)c4ccc5cccnc5c4)CC3)c(-c3cc(OC)c(OC)c(OC)c3)oc2c1 [Compound I9] | 37.31 ± 5.41% | 40.25 ± 1.39% | 32.80 ± 2.29% | 42.50 ± 1.87% | 12.10 ± 2.57% | 28.82 ± 3.37%
10 | COc1cc(OC)c2c(=O)c(OCCCN(C)C3CCN(S(=O)(=O)c4ccccc4[N+](=O)[O-])CC3)c(-c3cc(OC)c(OC)c(OC)c3)oc2c1 [Compound I10] | 59.65 ± 2.25% | 67.71 ± 2.22% | 38.60 ± 4.17% | 45.69 ± 0.50% | 57.89 ± 3.30% | 94.99 ± 1.50%
11 | COc1cc(OC)c2c(=O)c(OCCCCN(C)C3CCN(S(=O)(=O)c4ccc(C)cc4)CC3)c(-c3cc(OC)c(OC)c(OC)c3)oc2c1 [Compound I11] | 71.76 ± 4.56% | 87.57 ± 2.76% | 47.25 ± 5.84% | 54.94 ± 8.29% | 46.83 ± 6.39% | 93.56 ± 0.55%
12 | COc1cc(OC)c2c(=O)c(OCCCCN(C)C3CCN(S(=O)(=O)c4ccc5ccccc5c4)CC3)c(-c3cc(OC)c(OC)c(OC)c3)oc2c1 [Compound I12] | 89.81 ± 1.34% | 95.44 ± 4.92% | 29.56 ± 7.62% | 35.81 ± 2.40% | 45.75 ± 3.32% | 36.46 ± 7.42%
13 | COc1cc(OC)c2c(=O)c(OCCCCN(C)C3CCN(S(=O)(=O)c4ccc(F)cc4)CC3)c(-c3cc(OC)c(OC)c(OC)c3)oc2c1 [Compound I13] | 99.72 ± 1.10% | 100.00 ± 0.67% | 47.25 ± 4.42% | 48.08 ± 1.17% | 43.16 ± 3.98% | 49.25 ± 4.14%
14 | COc1cc(OC)c2c(=O)c(OCCCCN(C)C3CCN(S(=O)(=O)c4cccs4)CC3)c(-c3cc(OC)c(OC)c(OC)c3)oc2c1 [Compound I14] | 92.19 ± 0.98% | 95.49 ± 0.98% | 66.18 ± 0.61% | 73.80 ± 3.68% | 20.44 ± 5.03% | 8.17 ± 3.75%
15 | COc1ccc(S(=O)(=O)N2CCC(N(C)CCCCOc3c(-c4cc(OC)c(OC)c(OC)c4)oc4cc(OC)cc(OC)c4c3=O)CC2)cc1 [Compound I15] | 94.39 ± 0.62% | 96.11 ± 0.71% | 62.21 ± 1.33% | 67.94 ± 1.42% | 3.13 ± 5.57% | 24.02 ± 2.41%
16 | COc1cc(OC)c2c(=O)c(OCCCCN(C)C3CCN(S(=O)(=O)c4ccc([N+](=O)[O-])cc4)CC3)c(-c3cc(OC)c(OC)c(OC)c3)oc2c1 [Compound I16] | 55.67 ± 6.24% | 70.41 ± 2.62% | 66.33 ± 3.56% | 74.41 ± 1.31% | 27.52 ± 7.50% | 26.66 ± 4.37%
17 | COc1cc(OC)c2c(=O)c(OCCCCN(C)C3CCN(S(=O)(=O)c4ccccc4)CC3)c(-c3cc(OC)c(OC)c(OC)c3)oc2c1 [Compound I17] | 89.16 ± 1.26% | 98.29 ± 2.42% | 99.00 ± 0.40% | 99.52 ± 0.87% | 45.66 ± 3.26% | 38.06 ± 1.91%
18 | COc1cc(OC)c2c(=O)c(OCCCCN(C)C3CCN(S(=O)(=O)c4ccccn4)CC3)c(-c3cc(OC)c(OC)c(OC)c3)oc2c1 [Compound I18] | 70.98 ± 3.04% | 78.12 ± 4.25% | 88.69 ± 0.71% | 93.05 ± 0.55% | 46.22 ± 3.27% | 30.11 ± 1.65%
19 | COc1cc(OC)c2c(=O)c(OCCCCN(C)C3CCN(S(=O)(=O)c4ccc5cccnc5c4)CC3)c(-c3cc(OC)c(OC)c(OC)c3)oc2c1 [Compound I19] | 38.72 ± 1.36% | 51.83 ± 2.05% | 85.44 ± 1.04% | 89.05 ± 0.47% | 37.71 ± 3.71% | 35.21 ± 6.56%
20 | COc1cc(OC)c2c(=O)c(OCCCCN(C)C3CCN(S(=O)(=O)c4ccccc4[N+](=O)[O-])CC3)c(-c3cc(OC)c(OC)c(OC)c3)oc2c1 [Compound I20] | 90.29 ± 4.84% | 94.47 ± 8.30% | 96.57 ± 0.31% | 97.30 ± 1.97% | 21.26 ± 8.58% | 4.11 ± 3.12%
21 | Nc1nnc([S-])s1.Nc1nnc([S-])s1.[Cu+2] [Thiabenone, thiodiazole copper, reference compound] | 58.92% | 70.12% | 44.97% | 70.68% | 20.86 ± 4.42% | 40.20%
22 | bismerthiazol [Leaf Blight Azole, reference compound] | 39.14% | 60.50% | 50.60% | 66.63% | 57.63% | 65.69%
